Results published in article PMC4749225, “Azidobupramine, an Antidepressant-Derived Bifunctional Neurotransmitter Transporter Ligand Allowing Covalent Labeling and Attachment of Fluorophores” (PLoS ONE, 2016).
Read-outs that look alike come from different tables or passages of the source. One block for each molecule: values may come before it.

Columns and labels:
rSERT [1] = molecular target: T1, rSERT (Rattus norvegicus, UniProt P31652); test: Radioligand binding assay (RBA), competition with [3H]-citalopram, membranes of T-REx-SERT cells; details: for IC50: 0.5 nM [3H]-citalopram, 34°C, 60 min; for Ki: IC50 converted to Ki according to Cheng-Prusoff
T1 construct: expressed in transfected cells; host or cells: T-REx-SERT cells (T-REx 293 based, tetracycline-inducible), gift of C.G. Tate
T1 sequence (P31652 whole entry): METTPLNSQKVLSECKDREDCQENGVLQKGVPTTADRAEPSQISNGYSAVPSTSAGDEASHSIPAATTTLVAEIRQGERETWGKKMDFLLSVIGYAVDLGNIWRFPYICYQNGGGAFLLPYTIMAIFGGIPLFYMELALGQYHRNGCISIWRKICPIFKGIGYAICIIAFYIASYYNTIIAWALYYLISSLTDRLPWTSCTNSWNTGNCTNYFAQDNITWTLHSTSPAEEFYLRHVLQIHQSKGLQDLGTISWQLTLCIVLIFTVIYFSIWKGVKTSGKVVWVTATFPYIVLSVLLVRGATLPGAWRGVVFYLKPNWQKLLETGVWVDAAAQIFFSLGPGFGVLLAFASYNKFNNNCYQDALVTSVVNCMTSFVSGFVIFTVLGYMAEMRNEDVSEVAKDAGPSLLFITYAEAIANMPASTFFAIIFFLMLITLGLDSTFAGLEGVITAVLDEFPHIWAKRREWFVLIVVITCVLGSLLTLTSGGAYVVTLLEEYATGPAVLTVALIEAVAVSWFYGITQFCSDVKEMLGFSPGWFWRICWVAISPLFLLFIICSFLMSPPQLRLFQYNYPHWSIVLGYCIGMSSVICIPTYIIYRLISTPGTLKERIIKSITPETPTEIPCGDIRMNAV
Procedure: Tetracycline induced T-REx-SERT cells were mechanically disrupted with a hypotonic Tris-buffer (50 mM Tris, pH 7.9, proteinase inhibitor) in a two step procedure: dounce-homogenisation (Potter S, B.Braun, Melsungen, Germany) followed by an ultrasound treatment (sonifier W-250, Branson, CT, USA). Homogenates were centrifuged first at 800 rcf (10’, 4°C), followed by a second centrifugation step at 100,000 rcf (60’, 4°C). The resulting pellet was re-suspended in reaction-buffer RB1 (50 mM Tris-HCl, 150 mM NaCl, 5 mM KCl, proteinase inhibitor, pH 7.9), and stored at -80°C after protein determination (Pierce® BCA Protein Assay, Thermo Scientific, IL, USA).
Drugs were diluted in DMSO as solvent. Incubation was carried out at 34°C for 60’, and terminated by rapid filtration over polyethyleneimine preincubated GF/C filters using a Brandell MWXR-97TI cell harvester (Gaithersburg, MD, USA). Filters were washed three times with 2 ml of ice cold reaction-buffer RB1 and then incubated with scintillation liquid; radioactivity was measured by beta counting (MicroBeta, PerkinElmer LAS, Boston, MA, USA).

hDAT = molecular target: T2, hDAT (Homo sapiens, UniProt Q01959); test: Competitive MS Binding Assay (MSBA), (1R,3S)-indatraline as marker, HEK293 membrane fractions
T2 construct: expressed in transfected cells
T2 sequence (Q01959 whole entry): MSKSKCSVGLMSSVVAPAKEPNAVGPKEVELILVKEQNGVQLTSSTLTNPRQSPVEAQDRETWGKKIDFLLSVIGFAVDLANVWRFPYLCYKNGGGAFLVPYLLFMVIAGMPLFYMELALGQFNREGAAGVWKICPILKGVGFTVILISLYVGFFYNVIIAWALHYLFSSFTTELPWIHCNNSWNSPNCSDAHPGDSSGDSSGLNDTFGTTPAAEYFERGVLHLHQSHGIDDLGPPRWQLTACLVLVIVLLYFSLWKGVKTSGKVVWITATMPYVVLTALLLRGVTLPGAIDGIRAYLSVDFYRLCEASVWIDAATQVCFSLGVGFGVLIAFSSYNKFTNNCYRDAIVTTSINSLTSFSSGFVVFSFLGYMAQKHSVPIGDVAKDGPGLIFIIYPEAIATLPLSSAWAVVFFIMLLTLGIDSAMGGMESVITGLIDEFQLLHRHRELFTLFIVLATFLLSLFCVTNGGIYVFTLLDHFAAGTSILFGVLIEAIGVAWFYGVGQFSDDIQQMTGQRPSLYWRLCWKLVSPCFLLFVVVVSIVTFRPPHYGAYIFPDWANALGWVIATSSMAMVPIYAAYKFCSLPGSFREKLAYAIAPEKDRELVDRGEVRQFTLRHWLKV
Procedure: (§1) Competitive MSBAs to characterize the affinity of test compounds employing (1R,3S)-indatraline as a marker for hDAT, hNET and hSERT, respectively, were performed exactly as described by Grimm et al.. For this purpose, membrane fractions obtained from HEK293 cell lines stably expressing the corresponding target protein were incubated in presence of a fixed concentration of (1R,3S)-indatraline together with varying concentrations of test compounds in 96 well plates. After separation of the non-bound marker by vacuum filtration from the binding samples, bound (1R,3S)-indatraline remaining on the filter was eluted with acetonitrile (containing internal standard) and quantified by LC-ESI-MS/MS. Subsequently, inhibition of (1R,3S)-indatraline binding caused by test compounds could be analyzed essentially in the same way as described for radioligand binding assays.

hNET = molecular target: T3, hNET (Homo sapiens, UniProt P23975); test: as above; details: read-out: Ki, NET
T3 construct: expressed in transfected cells
T3 sequence (P23975 whole entry): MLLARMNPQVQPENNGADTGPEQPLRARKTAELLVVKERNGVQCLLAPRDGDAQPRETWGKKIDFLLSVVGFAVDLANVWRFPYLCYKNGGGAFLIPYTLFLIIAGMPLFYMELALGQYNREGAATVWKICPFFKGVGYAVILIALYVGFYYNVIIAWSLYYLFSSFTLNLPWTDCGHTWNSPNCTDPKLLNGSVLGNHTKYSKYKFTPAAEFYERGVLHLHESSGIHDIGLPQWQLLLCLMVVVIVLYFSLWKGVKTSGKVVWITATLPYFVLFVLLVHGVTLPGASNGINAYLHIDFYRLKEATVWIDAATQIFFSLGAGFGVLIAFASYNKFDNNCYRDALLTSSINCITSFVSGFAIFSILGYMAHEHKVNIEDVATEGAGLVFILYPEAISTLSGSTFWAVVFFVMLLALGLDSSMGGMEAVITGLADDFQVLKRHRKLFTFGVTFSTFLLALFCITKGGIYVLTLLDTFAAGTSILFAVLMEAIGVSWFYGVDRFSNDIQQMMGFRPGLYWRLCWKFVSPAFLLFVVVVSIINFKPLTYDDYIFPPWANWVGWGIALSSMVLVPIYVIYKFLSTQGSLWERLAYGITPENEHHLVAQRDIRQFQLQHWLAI
Procedure: as §1

hSERT = molecular target: T4, hSERT (Homo sapiens, UniProt P31645); test: as above
T4 construct: expressed in transfected cells
T4 sequence (P31645 whole entry): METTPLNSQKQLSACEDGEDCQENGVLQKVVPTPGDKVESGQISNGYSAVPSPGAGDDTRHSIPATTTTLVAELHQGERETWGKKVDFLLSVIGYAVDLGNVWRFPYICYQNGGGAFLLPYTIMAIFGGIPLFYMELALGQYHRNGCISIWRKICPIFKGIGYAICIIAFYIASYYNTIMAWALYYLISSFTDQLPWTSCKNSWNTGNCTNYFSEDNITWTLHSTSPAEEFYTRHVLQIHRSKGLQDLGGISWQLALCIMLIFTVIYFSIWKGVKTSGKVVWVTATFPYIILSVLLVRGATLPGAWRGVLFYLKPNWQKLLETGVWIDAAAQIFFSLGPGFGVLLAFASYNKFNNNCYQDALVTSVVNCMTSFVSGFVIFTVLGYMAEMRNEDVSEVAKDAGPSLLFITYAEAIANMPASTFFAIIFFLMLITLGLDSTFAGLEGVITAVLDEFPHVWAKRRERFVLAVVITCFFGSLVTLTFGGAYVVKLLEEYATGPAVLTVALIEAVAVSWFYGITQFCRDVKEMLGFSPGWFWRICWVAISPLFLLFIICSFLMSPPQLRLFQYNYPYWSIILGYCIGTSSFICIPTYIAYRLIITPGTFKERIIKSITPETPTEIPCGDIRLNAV
Procedure: as §1

rSERT [2] = molecular target: T1, rSERT; test: PAL and CuAAC fluorescence assay of 17 on rSERT-enriched material immobilized on ANTI-FLAG M2 affinity gel, with competitors; assay type: binding; details: for decrease in binding signal of 17 at enriched rSERT by competitor: 17 1 μM, competitor 1 mM (1000 fold molar excess), PAL then CuAAC rhodamine fluorescence
Procedure: (§2) For all these experiments, rSERT was chosen as model target. The PAL-reaction was conducted either using rSERT-enriched protein material or living cells. In both cases, the subsequent CuAAC-reaction took place after the double-tagged rSERT-His10-FLAG was immobilized on ANTI-FLAG® M2 Affinity-gel (SigmaAldrich, MO, USA).
For the interaction analysis of azidobupramine (17) with rSERT-enriched material, 1 mg of membrane preparation was solubilized in reaction-buffer RB3 (52.6 mM Tris/HCl, 126.4 mM NaCl, 5.26 mM KCl, 1% Triton X-100, proteinase inhibitor, pH 7.9). Then rSERT was immobilized on ANTI-FLAG® M2 Affinity-gel (over night, 4°C, constant agitation), and unbound protein was removed by three washing steps with reaction-buffer RB4 (25 mM HEPES/NaOH, 126.4 mM NaCl, 5.26 mM KCl, proteinase inhibitor, pH 7.9). […] This was followed by UV-light exposure (312 nm, 2x 45”, RT) using the Dual Transilluminator from Stratagene (5x8 Watt, La Jolla, CA, USA), and copper mediated click reaction (60 μM Rhodamine-azide, 2.5 mM ascorbic acid, 250 μM CuSO4, and 500 μM bis[(tertbutyltriazoyl)methyl]-[(2-carboxymethyltriazoyl)methyl]amine (BTTAA), 60’, RT, constant agitation) [31].
Within the fluorescence based interaction studies of 17 with rSERT, the fluorescence signal was recorded with the ChemiDoc MP detection-system and analyzed using ImageLab (BioRad, CA, USA); for quantification, only those fluorescent signals were taken that correspond to Western blot verified rSERT (between 70-100 kDa). Recorded fluorescent signals were normalized to the Western-blot signal of rSERT.

rSERT [3] = molecular target: T1, rSERT; test: PAL of 17 in living T-REx-SERT cells followed by CuAAC rhodamine labelling, with competitor; assay type: cell-based; details: 17 10 μM; UV-light 312 nm
Procedure: T-REx-SERT cells expressing rSERT-His10-FLAG were kindly provided by C.G. Tate (MRC Laboratory of Molecular Biology, Cambridge, UK) [27]; cells were cultivated in suspension (FreeStyle™ 293 Expression medium, 10% FBS, antibiotic-antimycotic, and pyruvate); for selection purpose, 5 μg/ml blasticidin and 200 μg/ml zeocin were used; expression was induced by adding 1 μg/ml tetracycline for 5 days.
as §2
This was followed by UV-light induced covalent linkage (312 nm, 2x 60”, RT). The further processing was as described above, i.e. membrane preparation, solubilization and immobilization of rSERT to ANTI-FLAG® M2 Affinity-gel, CuAAC-reaction followed by protein elution, and SDS-PAGE.
Within the fluorescence based interaction studies of 17 with rSERT, the fluorescence signal was recorded with the ChemiDoc MP detection-system and analyzed using ImageLab (BioRad, CA, USA); for quantification, only those fluorescent signals were taken that correspond to Western blot verified rSERT (between 70-100 kDa). Recorded fluorescent signals were normalized to the Western-blot signal of rSERT. […]

Compound: CN(C)CCCN1c2ccccc2CCc2ccc(N=[N+]=[N-])cc21 [compound 11, 3-(3-azido-10,11-dihydro-5H-dibenzo[b,f]azepin-5-yl)-N,N-dimethyl propan-1-amine]
- IC50 (rSERT [1]): 12 nM
- Ki (rSERT [1]): 8.82 nM

Compound: CNCCCN1c2ccccc2CCc2ccc(N=[N+]=[N-])cc21 [compound 15, 3-(3-azido-10,11-dihydro-5H-dibenzo[b,f]azepin-5-yl)-N-methylpro-pan-1-amine]
- IC50 (rSERT [1]): 85.1 nM
- Ki (rSERT [1]): 62.4 nM

Compound: CN1CCN2c3ncccc3Cc3ccccc3C2C1 (centres unmarked) [mirtazapine]
- decrease in binding signal of 17 at enriched rSERT by competitor (rSERT [2]): does not
- decrease in binding signal of 17 at enriched rSERT by competitor (rSERT [2]; listed as MRT): no effect

Second part, led by results:

- IC50 (rSERT [1]): 1550 nM
- Ki (rSERT [1]): 1120 nM
Compound: CN(CCCN1c2ccccc2CCc2ccccc21)CC(=O)c1ccc(Cl)cc1 [compound 5, lofepramine, reference compound]

- Ki (hDAT; read-out: Ki, DAT): 1640 nM
- Ki (hDAT; three independent experiments, each in triplicates, read-out: pKi ±SEM, DAT (converted)): 1580 nM
- Ki (hNET): 115 nM
- drop in affinity to SERT, MSBA versus RBA (hSERT; Ki 103 nM (MSBA, human) vs 22.2 nM (RBA, rat)): 4.6 fold
- Ki (hSERT; MSBA, read-out: Ki, SERT): 103 nM
- IC50 (rSERT [1]): 30.2 nM
- Ki (rSERT [1]): 22.2 nM
- covalent labelling of rSERT by PAL and visualization by CuAAC (rSERT [2]; rSERT-enriched material, UV-light 312 nm): interacts predominantly with rSERT
Compound: C#CCCN(C)CCCN1c2ccccc2CCc2ccc(N=[N+]=[N-])cc21 [compound 17, N-(3-(3-azido-10,11-dihydro-5H-dibenzo[b,f]azepin-5-yl)propyl)-N-methylbut-3-yn-1-amine]
- covalent labelling of rSERT in living cells (rSERT [3]): forms covalent bonds with rSERT after UV-light exposure in living cells
